Values quoted from earlier work in patent publication US20090018125A1, “Pharmaceutical Composition and Its Use” (Tillotts Pharma AG, priority 2004, published 2009).

Tested on: human squamous carcinoma line and multidrug-resistant and carboplatin-resistant variants
Details: cells pre-treated with GLA

CCCCC/C=C\C/C=C\C/C=C\CCCCC(=O)O [GLA, gamma-linoleic acid]
enhancement of vincristine toxicity: up to 40%
enhancement of toxicity of carboplatin (depending on GLA concentration, human squamous carcinoma and carboplatin-resistant variant cell lines): ≥ 50%
